Test results as given in patent US6897237B2, “MMP-12 inhibitors” (Shionogi & Co. Ltd., priority 2000, dated 2005).

Columns and labels:
MMP-12 catalytic domain = target: T1, MMP-12 catalytic domain (Homo sapiens, UniProt P39900); experiment: Assay for inhibitory activities on MMPs (fluorogenic peptide substrate): MMP-12; assay type: biochemical; conditions: substrate MOCAc-Pro-Leu-Gly-Leu-A2Pr(DNP)-Ala-Arg-NH2
T1 construct: catalytic domain(^100Phe˜^263Gly); His-tag; enterokinase digestion-site; made in house; host or cells: Escherichia coli
T1 sequence (P39900 100-263): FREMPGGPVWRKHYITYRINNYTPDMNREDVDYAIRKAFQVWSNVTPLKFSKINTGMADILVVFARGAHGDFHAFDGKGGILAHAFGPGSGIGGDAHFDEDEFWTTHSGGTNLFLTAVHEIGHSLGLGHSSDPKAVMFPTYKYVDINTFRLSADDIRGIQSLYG
Description: (§1) In regard to MMP-12, catalytic domain(^100Phe˜^263Gly) was amplified with RT-PCR from Human Placenta Total RNA. This was cloned in Escherichia coli expression vector pTrc99AHE inserted with His-tag sequence and enterokinase digestion-site, induced and expressed by IPTG (Isopropyl-β-D-thiogalactopyranoside) and expressed in a insoluble fraction. Isolation of MMP-12 from a insoluble fraction was carried out by dissolving in modifier (6M urea) by a usual method and purification with metal chelate chromatography (Ni Chelateing Sepharose). And then removing modifier (6M urea) with dialysis and refolding of the enzyme spontaneously gave activated MMP-12.
(§2) The enzymatic activity on MMPs was analyzed by the method described in “C. Graham Knight, Frances Willenbrock and Gillian Murphy: A novel coumarin-labelled peptide for sensitive continuous assays of the matrix metalloproteinases: FEBS LETT., 296, (1992), 263-266”. The substrate: MOCAc-Pro-Leu-Gly-Leu-A2Pr(DNP)-Ala-Arg-NH2 was purchased from Peptide Institute, Inc., Osaka, Japan. The measurement of the inhibitory activities (IC50) was carried out by the following four methods;
(§3) (A) Reaction with substrate, enzyme (MMPs) and inhibitor
(§4) (B) Reaction with substrate and inhibitor, without enzyme
(§5) (C) Reaction with substrate and enzyme (MMPs), without inhibitor
(§6) (D) Reaction with substrate only
(§7) IC50 values were calculated by using the following formula and each fluorescence values of above four methods (A to D).
(§8) % inhibition={1−(A−B)/(C−D)}×100
(§9) IC50 means the concentration required to inhibit 50% of the enzyme activity.

MMP-9 = target: T2, MMP-9 (Homo sapiens, UniProt P14780); experiment: Assay for inhibitory activities on MMPs (fluorogenic peptide substrate): MMP-9; assay type: biochemical; conditions: substrate MOCAc-Pro-Leu-Gly-Leu-A2Pr(DNP)-Ala-Arg-NH2
T2 construct: endogenous in cells; host or cells: HT1080 human fibrosarcoma cells, TPA-stimulated; purified in house from conditioned medium
T2 sequence (P14780 107-707 limits assumed): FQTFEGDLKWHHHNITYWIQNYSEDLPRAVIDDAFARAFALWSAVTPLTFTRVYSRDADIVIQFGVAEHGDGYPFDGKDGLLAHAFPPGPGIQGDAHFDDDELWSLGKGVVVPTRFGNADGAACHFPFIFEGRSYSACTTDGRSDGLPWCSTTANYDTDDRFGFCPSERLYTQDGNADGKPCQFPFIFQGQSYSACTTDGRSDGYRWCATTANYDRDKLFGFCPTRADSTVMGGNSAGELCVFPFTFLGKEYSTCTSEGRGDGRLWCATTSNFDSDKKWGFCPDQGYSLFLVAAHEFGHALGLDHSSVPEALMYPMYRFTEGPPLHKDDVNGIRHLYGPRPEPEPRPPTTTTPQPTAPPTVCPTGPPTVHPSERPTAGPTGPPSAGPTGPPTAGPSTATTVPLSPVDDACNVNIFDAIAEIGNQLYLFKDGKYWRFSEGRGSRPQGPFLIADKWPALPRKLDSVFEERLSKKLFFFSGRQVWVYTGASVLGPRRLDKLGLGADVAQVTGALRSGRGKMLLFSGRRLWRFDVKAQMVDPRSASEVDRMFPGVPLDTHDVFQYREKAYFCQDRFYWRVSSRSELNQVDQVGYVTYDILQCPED
From the text: MMP-9 was isolated and purified by using a combination of procedures described in previous reports as follows. Yasunori Okada, Yukio Gonoji, Katsumi Naka, Katsuro Tomita, Isao Nakanishi, Kazushi Iwata, Kyoko Yamashita, and Taro Hayakawa: Matrix metalloproteinase 9 (92-kDa gelatinase/type IV collagenase) from HT1080 human fibrosarcoma cells. Purification and activation of the precursor and enzymic properties. J. Biol. Chem., 267 (1.992) 21712-21719. Yasunori Okada, Tatsuhisa Morodomi, Jan J, Enghild, Ko Suzuki, Atsushi Yasui, Isao Nakanishi, Guy Salvesen and Hideaki Nagase: Matrix metalloproteinase 2 from human rheumatoid synovial fibroblasts. Purification and activation of the precursor and enzymic properties. Eur. J. Biochem. 194 (1990) 721-730. Robin V Ward, Rosalind M Hembry, John J Reynolds and Gillian Murphy: The purification of tissue inhibitor of metalloproteinase-2 from its 72 kDa progelatinase complex. Biochem. J. 278 (1991) 179-187.
Briefly, human fibrosarcoma ATCC HT1080 cell line was cultured to confluent in Dulbecco's Modified Medium (DMEM) containing 10% fetal-calf serum at 37° C. for 48 hours. Subsequently, the medium of confluent culture was changed to serum-free DMEM medium. To obtain MMP-9, Phorbol-12-myristate-13-acetate (TPA) must be added to this serum-free DMEM medium at a concentration of 50 ng/ml. The TPA treated medium was centrifuged at 3000 rpm for 15 min and the supernatant was concentrated to 450 ml by a Toyo-Roshi UP-20 apparatus with an ultrafiltration membrane. Then, proMMP-9 in this concentrated solution was purified by using columns of Gelatin-Sepharose and Concanavalin A-Sepharose. The pool containing proMMP-9 was dialyzed, concentrated (Toyo-Roshi UP-20) and applied to columns of Sephacryl S-200 and Green A matrix for the separation from TIMPs. The obtained proMMP-9 fraction was activated by TPCK-Trypsin (final conc. […] reaction mix.).
as §2, §3, §4, §5, §6, §7, §8, §9

MMP-2 = target: T3, MMP-2 (Homo sapiens, UniProt P08253); experiment: Assay for inhibitory activities on MMPs (fluorogenic peptide substrate): MMP-2; assay type: biochemical; conditions: substrate MOCAc-Pro-Leu-Gly-Leu-A2Pr(DNP)-Ala-Arg-NH2
T3 construct: purchased Calbiochem-Novabiochem International, Inc
T3 sequence (P08253 110-660): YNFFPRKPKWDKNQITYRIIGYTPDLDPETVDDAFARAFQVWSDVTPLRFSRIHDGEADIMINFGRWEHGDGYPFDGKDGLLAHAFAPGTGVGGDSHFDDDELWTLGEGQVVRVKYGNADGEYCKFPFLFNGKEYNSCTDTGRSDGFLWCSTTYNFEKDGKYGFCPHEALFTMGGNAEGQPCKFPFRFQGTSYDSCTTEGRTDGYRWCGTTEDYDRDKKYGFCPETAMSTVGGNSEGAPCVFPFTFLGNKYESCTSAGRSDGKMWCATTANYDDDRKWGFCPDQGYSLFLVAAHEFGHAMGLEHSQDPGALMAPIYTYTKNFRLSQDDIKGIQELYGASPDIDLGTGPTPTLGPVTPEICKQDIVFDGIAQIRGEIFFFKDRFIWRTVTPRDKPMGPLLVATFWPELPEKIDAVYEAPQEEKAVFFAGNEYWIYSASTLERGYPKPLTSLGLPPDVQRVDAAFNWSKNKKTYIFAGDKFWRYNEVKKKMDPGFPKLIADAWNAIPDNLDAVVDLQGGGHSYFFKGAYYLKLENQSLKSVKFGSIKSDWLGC
Description: MMP-2 was purchased from Calbiochem-Novabiochem International, Inc.
as §2, §3, §4, §5, §6, §7, §8, §9

MMP-8 catalytic domain = target: T4, MMP-8 catalytic domain (Homo sapiens, UniProt P22894); experiment: Assay for inhibitory activities on MMPs (fluorogenic peptide substrate): MMP-8; assay type: biochemical; conditions: substrate MOCAc-Pro-Leu-Gly-Leu-A2Pr(DNP)-Ala-Arg-NH2
T4 construct: catalytic domain (^99Phe˜^262Gly); His-tag; enterokinase digestion-site; made in house; host or cells: Escherichia coli
T4 sequence (P22894 99-262): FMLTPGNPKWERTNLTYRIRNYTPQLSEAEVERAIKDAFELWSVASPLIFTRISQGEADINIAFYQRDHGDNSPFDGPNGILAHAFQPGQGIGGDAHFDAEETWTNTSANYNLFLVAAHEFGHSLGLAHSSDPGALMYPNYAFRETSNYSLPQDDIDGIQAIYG
From the text: In regard to MMP-8, catalytic domain (^99Phe˜^262Gly) was amplified with PCR using commercial available Human Bone Marrow cDNA. This was cloned in Escherichia. coli expression vector pTrc99AHE inserted with His-tag sequence and enterokinase digestion-site, induced and expressed by IPTG (Isopropyl-β-D-thiogalactopyranoside) and expressed in a insoluble fraction (Than F. Ho, M. Walid Qoronfleh, Robert C. Wahl, Trica A. Pulvino, Karen J. Vavra, Joe Falvo, Tracey M. Banks, Patricia G. Brake and Richard B. Ciccarelli: Gene expression, purification and characterization of recombinant human neutrophil collagenase. Gene 146, (1994) 297-301, Prepared by the a improved method of this material). Isolation of MMP-8 from insoluble fraction was carried out by dissolving in modifier (6M urea) by a usual method and purification with metal chelate chromatography. And then removing modifier (6M urea) with dialysis and refolding of the enzyme spontaneously gave activated MMP-8.
as §2, §3, §4, §5, §6, §7, §8, §9

MMP-13 catalytic domain = target: T5, MMP-13 catalytic domain (Homo sapiens, UniProt P45452); experiment: Assay for inhibitory activities on MMPs (fluorogenic peptide substrate): MMP-13; assay type: biochemical; conditions: substrate MOCAc-Pro-Leu-Gly-Leu-A2Pr(DNP)-Ala-Arg-NH2
T5 construct: catalytic domain (^104Tyr˜^267Gly); His-tag; enterokinase digestion-site; made in house; host or cells: Escherichia coli
Description: as §1, with “MMP-13, mRNA was prepared from carcinoma cell SW1353 derived from human cartilage stimulate by IL-1, TNF and” for “MMP-12,”, “domain (^104Tyr˜^267Gly)” for “domain(^100Phe˜^263Gly)”, “RT-PCR.” for “RT-PCR from Human Placenta Total RNA.”, “MMP-1.3” for “MMP-12”, “dialyze” for “dialysis”, “MMP-13.” for “MMP-12.”
as §2, §3, §4, §5, §6, §7, §8, §9

MMP-1 = target: T6, MMP-1 (Homo sapiens, UniProt P03956); experiment: Assay for inhibitory activities on MMPs (fluorogenic peptide substrate): MMP-1; assay type: biochemical; conditions: substrate MOCAc-Pro-Leu-Gly-Leu-A2Pr(DNP)-Ala-Arg-NH2
T6 construct: purchased Yagai
T6 sequence (P03956 100-469): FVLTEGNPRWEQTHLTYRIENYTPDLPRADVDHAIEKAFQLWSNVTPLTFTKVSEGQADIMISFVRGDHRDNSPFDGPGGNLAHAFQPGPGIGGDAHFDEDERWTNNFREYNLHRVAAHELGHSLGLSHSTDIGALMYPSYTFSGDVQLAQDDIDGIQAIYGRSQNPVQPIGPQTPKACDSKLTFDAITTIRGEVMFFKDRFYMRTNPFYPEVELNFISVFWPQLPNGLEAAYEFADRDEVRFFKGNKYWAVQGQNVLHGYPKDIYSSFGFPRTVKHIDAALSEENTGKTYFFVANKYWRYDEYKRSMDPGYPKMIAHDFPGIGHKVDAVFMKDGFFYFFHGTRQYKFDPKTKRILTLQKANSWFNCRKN
Description: MMP-1 was purchased from Yagai.
as §2, §3, §4, §5, §6, §7, §8, §9

For `CC(C)[C@H](NS(=O)(=O)c1ccc(C#Cc2ccc3ccccc3c2)cc1)C(=O)O` [Compound A-1], the IC50 (MMP-12 catalytic domain) was 7.6 nM, the IC50 (MMP-9) was 770 nM and the IC50 (MMP-2) was 400 nM. The melting point was 171 to 173 °C, the IC50 (MMP-8 catalytic domain) was 570 nM and the IC50 (MMP-13 catalytic domain) was 300 nM. For the same molecule, the IC50 (MMP-1) was over 10000 nM.
In the case of `O=C(O)CNS(=O)(=O)c1ccc(C#Cc2ccc3ccccc3c2)s1` [Compound B-9], the IC50 (MMP-12 catalytic domain) is reported as 260 nM, the IC50 (MMP-9) is reported as 4230 nM and the IC50 (MMP-2) is reported as 1270 nM. It also gave an IC50 (MMP-8 catalytic domain) of over 10000 nM, an IC50 (MMP-13 catalytic domain) of 7180 nM and an IC50 (MMP-1) of over 10000 nM.
`CSCC[C@@H](NS(=O)(=O)c1ccc(C#Cc2ccc3ccccc3c2)s1)C(=O)O` [Compound B-10] showed an IC50 (MMP-12 catalytic domain) of 8.8 nM, an IC50 (MMP-9) of 870 nM and an IC50 (MMP-2) of 350 nM. The IC50 (MMP-8 catalytic domain) was 1000 nM, the IC50 (MMP-13 catalytic domain) was 950 nM and the IC50 (MMP-1) was over 10000 nM.
For `CSCC[C@H](NS(=O)(=O)c1ccc(C#Cc2ccc3ccccc3c2)s1)C(=O)O` [Compound B-11], the IC50 (MMP-12 catalytic domain) was 110 nM, the IC50 (MMP-9) was 4900 nM and the IC50 (MMP-2) was 1860 nM. The IC50 (MMP-8 catalytic domain) was 2890 nM, the IC50 (MMP-13 catalytic domain) was 6140 nM and the IC50 (MMP-1) was over 10000 nM.
Molecule `O=C(O)C[C@@H](NS(=O)(=O)c1ccc(C#Cc2ccc3ccccc3c2)s1)C(=O)O` [Compound B-12] has an IC50 (MMP-12 catalytic domain) of 40 nM, an IC50 (MMP-9) of 1100 nM and an IC50 (MMP-2) of 1250 nM. It also gave an IC50 (MMP-8 catalytic domain) of 2600 nM, an IC50 (MMP-13 catalytic domain) of 1400 nM and an IC50 (MMP-1) of over 10000 nM.
With `O=C(O)[C@@H](Cc1ccccc1)NS(=O)(=O)c1ccc(C#Cc2cccc3ccccc23)s1` [Compound B-17] the IC50 (MMP-12 catalytic domain) was 820 nM, the IC50 (MMP-9) was over 10000 nM and the IC50 (MMP-2) was over 10000 nM. The IC50 (MMP-8 catalytic domain) was over 10000 nM, the IC50 (MMP-13 catalytic domain) was over 10000 nM and the IC50 (MMP-1) was over 10000 nM.
For `O=C(O)[C@@H](Cc1ccccc1)NS(=O)(=O)c1ccc(-n2nnc(-c3ccc4ccccc4c3)n2)cc1` [Compound C-1], the IC50 (MMP-12 catalytic domain) was 55 nM, the IC50 (MMP-9) was over 10000 nM and the IC50 (MMP-2) was 140 nM. It also gave an IC50 (MMP-8 catalytic domain) of over 10000 nM, an IC50 (MMP-13 catalytic domain) of 450 nM and an IC50 (MMP-1) of over 10000 nM.
`O=C(O)[C@H](Cc1ccccc1)NS(=O)(=O)c1ccc(-n2nnc(-c3ccc4ccccc4c3)n2)cc1` [Compound C-2] showed an IC50 (MMP-12 catalytic domain) of 140 nM, an IC50 (MMP-9) of over 10000 nM and an IC50 (MMP-2) of over 10000 nM. The IC50 (MMP-8 catalytic domain) was over 10000 nM, the IC50 (MMP-13 catalytic domain) was over 10000 nM and the IC50 (MMP-1) was over 10000 nM.
In the case of `O=C(Nc1ccc(S(=O)(=O)N[C@@H](Cc2ccccc2)C(=O)O)cc1)c1ccc2ccccc2c1` [Compound D-2], the IC50 (MMP-12 catalytic domain) is reported as 150 nM, the IC50 (MMP-9) is reported as 6560 nM and the IC50 (MMP-2) is reported as 560 nM. For the same molecule, the IC50 (MMP-8 catalytic domain) was 4510 nM, the IC50 (MMP-13 catalytic domain) was 2330 nM and the IC50 (MMP-1) was over 10000 nM.
